Test results: ChEMBL document CHEMBL2311464, “Potent inhibitors of CDK5 derived from roscovitine: synthesis, biological evaluation and molecular modelling” (Bioorg Med Chem Lett, 2013)
pIC50: −log10 of the molar value.

How the values were obtained:
[1] = Inhibition of porcine brain CK1 delta/epsilon using RRKHAAIGpSAYSITA as substrate measured after 30 mins by scintillation counting; parameters: species or system Sus scrofa
[2] = biological target: Glycogen synthase kinase-3 (Sus scrofa, UniProt B2LUN4+I6LNT8); test: Inhibition of porcine GSK-3alpha/beta using YRRAAVPPSPSLSRHSSPHQSpEDEEE as substrate measured after 30 mins by scintillation counting
[3] = biological target: Cyclin-dependent kinase 5/CDK5 activator 1 (Homo sapiens, UniProt Q00535); test: Inhibition of recombinant human CDK5/p25 after 30 mins by scintillation counting; type: protein-complex assay
Sequence of Cyclin-dependent kinase 5/CDK5 activator 1 (Q00535 whole entry): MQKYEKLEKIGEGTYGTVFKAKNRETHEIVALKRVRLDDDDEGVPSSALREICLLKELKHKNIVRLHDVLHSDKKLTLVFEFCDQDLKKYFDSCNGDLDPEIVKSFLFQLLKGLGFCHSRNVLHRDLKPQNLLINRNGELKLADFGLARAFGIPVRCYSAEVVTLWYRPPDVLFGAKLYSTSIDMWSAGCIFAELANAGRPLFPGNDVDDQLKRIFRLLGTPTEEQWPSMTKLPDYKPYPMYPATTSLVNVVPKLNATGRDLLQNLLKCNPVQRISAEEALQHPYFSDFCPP
Sequence of Cyclin-dependent kinase 5/CDK5 activator 1 (Q15078 whole entry, further chain): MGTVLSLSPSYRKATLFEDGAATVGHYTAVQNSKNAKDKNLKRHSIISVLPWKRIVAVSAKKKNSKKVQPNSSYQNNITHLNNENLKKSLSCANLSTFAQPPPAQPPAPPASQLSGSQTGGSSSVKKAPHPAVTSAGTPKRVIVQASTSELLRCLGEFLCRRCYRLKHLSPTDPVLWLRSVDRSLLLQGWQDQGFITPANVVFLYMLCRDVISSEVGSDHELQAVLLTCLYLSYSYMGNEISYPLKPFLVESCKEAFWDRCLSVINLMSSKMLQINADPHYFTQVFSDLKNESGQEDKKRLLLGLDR

[4] = biological target: Cyclin-dependent kinase 2/cyclin A (Homo sapiens, UniProt P24941); test: Inhibition of recombinant human CDK2/cyclin A after 30 mins by scintillation counting; type: protein-complex assay
cells = settings: Homo sapiens, SH-SY5Y, 48 h
Description: Cytotoxicity against human SH-SY5Y cells after 48 hrs by MTS assay

SH-SY5Y [5] = test: Ratio of DRF53 IC50 to compound IC50 for human SH-SY5Y cells after 48 hrs by MTS assay; type: functional
SH-SY5Y [6] = test: Ratio of roscovitine IC50 to compound IC50 for human SH-SY5Y cells after 48 hrs by MTS assay; type: functional
[7] = biological target: Dual specificity tyrosine-phosphorylation-regulated kinase 1A (Homo sapiens, UniProt Q13627); test: Inhibition of recombinant GST-fused human DYRK1A expressed in Escherichia coli using KKISGRLSPIMTEQ as substrate
[8] = biological target: Cyclin-dependent kinase 1/cyclin B1 (Homo sapiens, UniProt P06493); test: Inhibition of CDK2/cyclin B (unknown origin) after 30 mins by scintillation counting
Sequence of Cyclin-dependent kinase 1/cyclin B1 (P06493 whole entry): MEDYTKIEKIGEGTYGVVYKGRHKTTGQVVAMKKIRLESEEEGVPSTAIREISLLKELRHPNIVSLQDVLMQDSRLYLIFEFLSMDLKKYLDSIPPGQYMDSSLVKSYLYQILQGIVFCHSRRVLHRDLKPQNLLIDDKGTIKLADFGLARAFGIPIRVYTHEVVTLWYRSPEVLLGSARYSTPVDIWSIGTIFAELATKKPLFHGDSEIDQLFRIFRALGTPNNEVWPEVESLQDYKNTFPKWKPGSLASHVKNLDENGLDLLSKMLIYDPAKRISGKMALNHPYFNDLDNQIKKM
Sequence of Cyclin-dependent kinase 1/cyclin B1 (P14635 whole entry, further chain): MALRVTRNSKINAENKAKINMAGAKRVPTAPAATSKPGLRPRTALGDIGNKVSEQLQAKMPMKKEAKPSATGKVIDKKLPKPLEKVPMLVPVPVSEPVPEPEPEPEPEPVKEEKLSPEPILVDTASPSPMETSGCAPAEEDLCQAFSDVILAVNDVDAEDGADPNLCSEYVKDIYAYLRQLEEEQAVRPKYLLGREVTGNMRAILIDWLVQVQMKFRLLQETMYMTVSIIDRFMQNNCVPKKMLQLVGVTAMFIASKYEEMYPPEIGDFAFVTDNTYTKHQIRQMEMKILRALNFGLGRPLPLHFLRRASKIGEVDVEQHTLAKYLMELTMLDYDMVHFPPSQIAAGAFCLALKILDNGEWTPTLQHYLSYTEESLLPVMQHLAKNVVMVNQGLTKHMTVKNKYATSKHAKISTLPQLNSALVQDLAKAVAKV

Sus scrofa = organism: Sus scrofa; test: Inhibition of porcine brain CK1 delta/epsilon using RRKHAAIGpSAYSITA as substrate at 0.1 uM measured after 30 mins by scintillation counting

Compound	pIC50 [1]	IC50 [2]	pIC50 [3]	pIC50 [4]	pIC50 (cells)	Ratio IC50 (SH-SY5Y [5])	Ratio IC50 (SH-SY5Y [6])	pIC50 [7]	pIC50 [8]	inhibition (Sus scrofa)
CC[C@H](CO)Nc1nc(Nc2cccnc2)c2ncn(C(C)C)c2n1	6.00	10 µM	7.60	7.30	5.74	–	–	–	–	–
CC(C)n1cnc2c(Nc3cccnc3)nc(Cl)nc21	5.68	> 10 µM	5.96	6.17	5.74	–	–	–	–	–
CC[C@@H](CO)Nc1nc(Nc2ccnnc2)c2ncn(C(C)C)c2n1	6.00	7.3 µM	7.38	7.54	5.74	–	–	–	–	–
CC(C)[C@H](CO)Nc1nc(Nc2ccncn2)c2ncn(C(C)C)c2n1	5.55	> 10 µM	6.14	6.48	5.74	–	–	–	–	–
CC(C)[C@H](CO)Nc1nc(Nc2ccccn2)c2ncn(C(C)C)c2n1	5.21	> 10 µM	5.96	6.10	5.74	–	–	–	–	–
CC(C)n1cnc2c(Nc3ccncn3)nc(Cl)nc21	5.10	> 10 µM	< 5.00	4.89	5.74	5	5	< 5.00	–	–
CC(C)n1cnc2c(Nc3ccnnc3)nc(Cl)nc21	5.96	> 10 µM	5.52	5.80	5.74	–	–	–	–	–
CC(C)[C@@H](CO)Nc1nc(Nc2ccncc2)c2ncn(C(C)C)c2n1	5.48	7.8 µM	6.70	6.89	5.74	–	–	–	–	–
CC(C)[C@H](CO)Nc1nc(Nc2cncnc2)c2ncn(C(C)C)c2n1	5.89	5 µM	7.42	7.70	5.74	–	–	–	–	–
CC[C@@H](CO)Nc1nc(Nc2ncccn2)c2ncn(C(C)C)c2n1	< 5.00	> 10 µM	4.96	5.14	5.74	–	–	–	–	–
CC[C@H](CO)Nc1nc(NCc2ccccc2)c2ncn(C(C)C)c2n1 [SELICICLIB]	5.64	–	–	–	4.76	–	–	–	–	–
CC(C)n1cnc2c(Nc3ncccn3)nc(Cl)nc21	5.10	> 10 µM	< 5.00	< 5.00	5.74	5	5	< 5.00	–	–
CC(C)[C@H](CO)Nc1nc(Nc2cccnc2)c2ncn(C(C)C)c2n1	5.66	7.3 µM	7.66	7.74	5.74	–	–	–	–	–
CC(C)[C@H](CO)Nc1nc(Nc2ncccn2)c2ncn(C(C)C)c2n1	< 5.00	> 10 µM	< 5.00	< 5.00	5.74	–	–	–	–	–
CC[C@H](CO)Nc1nc(Nc2cccc(-c3ccccn3)c2)c2ncn(C(C)C)c2n1	7.85	–	7.10	–	–	–	–	–	6.66	–
CC(C)[C@H](CO)Nc1nc(Nc2ccnnc2)c2ncn(C(C)C)c2n1	6.10	6 µM	7.39	7.55	5.74	–	–	–	–	–
CC(C)[C@H](CO)Nc1nc(Nc2ccncc2)c2ncn(C(C)C)c2n1	5.74	12 µM	7.68	7.70	5.74	–	–	–	–	–
CC[C@@H](CO)Nc1nc(Nc2ccncn2)c2ncn(C(C)C)c2n1	5.08	> 10 µM	–	5.70	–	–	–	–	–	–
CC[C@@H](CO)Nc1nc(Nc2ccncc2)c2ncn(C(C)C)c2n1	< 6.00	6 µM	7.30	7.30	5.74	–	–	–	–	–
CC[C@H](CO)Nc1nc(Nc2ccncn2)c2ncn(C(C)C)c2n1	5.24	> 10 µM	–	5.92	–	–	–	–	–	–

Compound	pIC50 [1]	IC50 [2]	pIC50 [3]	pIC50 [4]	pIC50 (cells)	Ratio IC50 (SH-SY5Y [5])	Ratio IC50 (SH-SY5Y [6])	pIC50 [7]	pIC50 [8]	inhibition (Sus scrofa)
CC(C)[C@@H](CO)Nc1nc(Nc2cncnc2)c2ncn(C(C)C)c2n1	5.70	16 µM	6.43	6.96	5.74	–	–	–	–	–
CC[C@H](CO)Nc1nc(Nc2ccnnc2)c2ncn(C(C)C)c2n1	6.30	13 µM	7.22	7.14	5.74	–	–	–	–	–
CC(C)n1cnc2c(Nc3cncnc3)nc(Cl)nc21	5.64	> 10 µM	5.55	6.74	5.74	–	–	–	–	–
CC(C)n1cnc2c(Nc3cncnc3)nc(Nc3cncnc3)nc21	6.66	> 10 µM	6.44	6.77	5.74	–	–	–	–	–
CC(C)[C@@H](CO)Nc1nc(Nc2ccncn2)c2ncn(C(C)C)c2n1	5.31	22 µM	5.49	6.10	5.74	–	–	–	–	–
CC(C)[C@@H](CO)Nc1nc(Nc2ccccn2)c2ncn(C(C)C)c2n1	4.96	> 10 µM	5.72	5.92	5.74	–	–	–	–	–
CC[C@H](CO)Nc1nc(Nc2ccccn2)c2ncn(C(C)C)c2n1	5.21	33 µM	5.64	6.00	5.74	–	–	–	–	–
CC(C)[C@@H](CO)Nc1nc(Nc2ncccn2)c2ncn(C(C)C)c2n1	< 5.00	> 10 µM	5.00	5.05	5.74	–	–	–	–	–
CC[C@H](CO)Nc1nc(Nc2cncnc2)c2ncn(C(C)C)c2n1	6.22	> 10 µM	7.38	7.74	5.74	–	–	–	–	–
CC(C)[C@@H](CO)Nc1nc(Nc2ccnnc2)c2ncn(C(C)C)c2n1	5.72	4.3 µM	6.64	6.92	5.74	–	–	–	–	–
CC[C@@H](CO)Nc1nc(Nc2cccnc2)c2ncn(C(C)C)c2n1	5.70	> 10 µM	7.05	7.85	5.74	–	–	–	–	–
CC[C@@H](CO)Nc1nc(Nc2cncnc2)c2ncn(C(C)C)c2n1	6.03	> 10 µM	7.12	7.64	5.74	–	–	–	–	–
CC(C)[C@H](CO)Nc1nc(Nc2cccc(Cl)c2)c2ncn(C(C)C)c2n1	–	–	–	–	–	–	–	–	–	100%
CC[C@@H](CO)Nc1nc(Nc2ccccn2)c2ncn(C(C)C)c2n1	4.92	21 µM	5.39	6.28	5.74	–	–	–	–	–
CC[C@H](CO)Nc1nc(Nc2ncccn2)c2ncn(C(C)C)c2n1	< 5.00	> 10 µM	< 5.00	< 5.00	5.74	–	–	–	–	–
CC(C)n1cnc2c(Nc3ccccn3)nc(Cl)nc21	5.52	> 10 µM	5.68	5.21	5.74	–	–	–	–	–
CC(C)n1cnc2c(Nc3ccncc3)nc(Cl)nc21	5.68	18 µM	5.13	6.15	5.74	–	–	–	–	–
CC(C)n1cnc2c(Nc3cnccn3)nc(Cl)nc21	5.15	> 10 µM	4.92	5.51	5.74	–	–	–	–	–
CC[C@H](CO)Nc1nc(Nc2ccncc2)c2ncn(C(C)C)c2n1	6.00	> 10 µM	7.77	7.42	5.74	–	–	–	–	–
CC(C)[C@@H](CO)Nc1nc(Nc2cccnc2)c2ncn(C(C)C)c2n1	5.57	> 10 µM	6.52	6.92	5.74	–	–	–	–	–
